34 compounds from ChEMBL document CHEMBL2007661, “Compounds: GSK PKIS; Assays: UNC Frye lab” (2012) can be followed below.

Common to all, as to settings: at 1 µM
Assay [1] addresses T1, Inhibitor of nuclear factor kappa-B kinase subunit alpha (Homo sapiens) (UniProt O15111).
T1 sequence (whole entry): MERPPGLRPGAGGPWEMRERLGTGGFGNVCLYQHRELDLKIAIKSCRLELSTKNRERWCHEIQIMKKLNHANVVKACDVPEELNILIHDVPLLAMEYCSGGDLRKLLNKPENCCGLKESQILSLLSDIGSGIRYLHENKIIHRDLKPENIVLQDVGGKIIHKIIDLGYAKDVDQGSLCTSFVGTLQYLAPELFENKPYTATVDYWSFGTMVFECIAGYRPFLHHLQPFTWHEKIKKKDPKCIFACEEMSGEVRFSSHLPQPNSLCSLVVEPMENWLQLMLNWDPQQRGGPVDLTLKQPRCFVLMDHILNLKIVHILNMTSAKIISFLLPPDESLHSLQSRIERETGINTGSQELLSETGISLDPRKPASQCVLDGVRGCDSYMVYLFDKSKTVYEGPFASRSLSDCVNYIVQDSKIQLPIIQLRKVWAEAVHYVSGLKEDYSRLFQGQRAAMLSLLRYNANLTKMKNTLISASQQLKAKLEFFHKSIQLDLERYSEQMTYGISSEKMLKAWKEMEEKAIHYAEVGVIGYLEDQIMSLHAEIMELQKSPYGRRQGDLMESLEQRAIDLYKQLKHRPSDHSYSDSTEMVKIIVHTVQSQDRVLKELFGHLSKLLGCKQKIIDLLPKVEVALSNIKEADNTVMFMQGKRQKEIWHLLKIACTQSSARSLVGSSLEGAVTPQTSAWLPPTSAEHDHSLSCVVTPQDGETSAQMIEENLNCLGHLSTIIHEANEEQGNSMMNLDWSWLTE

The target of assay [2] is T2, Inhibitor of nuclear factor kappa-B kinase subunit beta (Homo sapiens) (UniProt O14920).
T2 sequence (whole entry): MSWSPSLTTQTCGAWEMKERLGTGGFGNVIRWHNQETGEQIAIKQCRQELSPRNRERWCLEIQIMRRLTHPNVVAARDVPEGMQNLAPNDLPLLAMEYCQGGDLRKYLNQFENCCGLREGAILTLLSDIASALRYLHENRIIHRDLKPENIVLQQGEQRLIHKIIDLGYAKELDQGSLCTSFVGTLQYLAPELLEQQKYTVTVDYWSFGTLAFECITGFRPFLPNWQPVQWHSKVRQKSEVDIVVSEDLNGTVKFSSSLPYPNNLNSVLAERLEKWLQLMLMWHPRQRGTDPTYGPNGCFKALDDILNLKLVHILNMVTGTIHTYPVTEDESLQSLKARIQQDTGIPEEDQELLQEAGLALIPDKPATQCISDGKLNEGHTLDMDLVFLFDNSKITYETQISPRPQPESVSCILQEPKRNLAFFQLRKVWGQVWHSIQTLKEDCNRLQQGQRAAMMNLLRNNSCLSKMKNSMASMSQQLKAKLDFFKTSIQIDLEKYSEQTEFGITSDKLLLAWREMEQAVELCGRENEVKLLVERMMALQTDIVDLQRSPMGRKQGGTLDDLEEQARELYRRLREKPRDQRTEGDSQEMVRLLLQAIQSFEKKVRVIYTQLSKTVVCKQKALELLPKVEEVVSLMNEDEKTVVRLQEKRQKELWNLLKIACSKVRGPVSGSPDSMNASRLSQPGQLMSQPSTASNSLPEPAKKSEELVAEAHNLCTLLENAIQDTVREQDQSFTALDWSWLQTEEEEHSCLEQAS

For assay [3], the target named is T3, Inhibitor of nuclear factor kappa-B kinase subunit epsilon (Homo sapiens) (UniProt Q14164).
T3 sequence (whole entry): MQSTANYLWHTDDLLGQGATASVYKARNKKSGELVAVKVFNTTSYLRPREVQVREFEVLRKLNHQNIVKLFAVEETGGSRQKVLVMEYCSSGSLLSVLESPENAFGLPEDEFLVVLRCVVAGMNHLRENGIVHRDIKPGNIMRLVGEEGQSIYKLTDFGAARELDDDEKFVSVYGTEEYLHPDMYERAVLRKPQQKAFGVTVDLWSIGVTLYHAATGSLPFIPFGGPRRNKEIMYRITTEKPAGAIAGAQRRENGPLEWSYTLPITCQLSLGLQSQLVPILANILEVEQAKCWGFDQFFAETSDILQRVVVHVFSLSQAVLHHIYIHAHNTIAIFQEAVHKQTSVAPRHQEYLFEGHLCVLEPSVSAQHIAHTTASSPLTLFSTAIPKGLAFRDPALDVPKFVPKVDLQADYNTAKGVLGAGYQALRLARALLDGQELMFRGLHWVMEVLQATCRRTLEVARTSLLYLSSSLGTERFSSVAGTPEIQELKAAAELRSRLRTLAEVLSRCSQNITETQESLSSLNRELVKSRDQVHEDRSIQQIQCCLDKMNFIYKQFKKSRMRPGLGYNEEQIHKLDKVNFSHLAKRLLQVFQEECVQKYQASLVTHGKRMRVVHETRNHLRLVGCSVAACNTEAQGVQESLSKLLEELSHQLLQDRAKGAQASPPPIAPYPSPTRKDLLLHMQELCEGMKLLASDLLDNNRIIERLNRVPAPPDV

Where “and” joins values, the source holds several entries; their conditions need not be identical. Equal values may be shown once.

As a reminder, the inhibition is the change of the read-out against control, counted positive when it falls. Consider `NS(=O)(=O)c1cccc(Nc2cc(-c3ccc(F)cc3)n[nH]2)c1`, for which the inhibition in assay [1] is 0% and -3%; in assay [2], -2%; in assay [3], 5%.

For the compound `FC(F)(F)c1cccc(Nc2nccc(-c3cnn4nc(-c5ccccc5)ccc34)n2)c1`, the inhibition was -5% and -4% in assay [1]; 1% and 2% in assay [2]; 7% and 5% in assay [3].

For the compound `COc1cc(C=NNc2ncnc3c2cnn3Cc2ccccc2)ccc1O`, the inhibition in assay [1] is 4%; in assay [2], -7%; in assay [3] it was 1% and -1%.

Consider `COc1ccc(-c2coc3ncnc(N)c23)cc1`, for which the inhibition was 0% and 1% in assay [1]; -3% and -1% in assay [2]; -4% in assay [3].

As to `Cn1c(-c2nonc2N)nc2cnccc21`, the inhibition was 27% and 23% in assay [1]; -4% and -2% in assay [2]; 2% and 3% in assay [3].

As to `Fc1ccc(-c2nc3n(c2-c2ccncc2)CCS3)cc1`, the inhibition is 11% and -1% in assay [1]; -2% and 0% in assay [2]; -1% and -2% in assay [3].

Turning to `CS(=O)(=O)CCNCc1ccc(-c2ccc3ncnc(Nc4ccc(OCc5ccccc5)c(Br)c4)c3c2)o1`, the inhibition in assay [1] was 3% and 2%; in assay [2], -1% and -2%; in assay [3] it was -2% and -1%.

`COc1cc2ncnc(Nc3ccc(C)c(O)c3)c2cc1OC`: the inhibition is 0% and 1% in assay [1]; -7% and -4% in assay [2]; -1% and -2% in assay [3].

With `CS(=O)(=O)CCNCc1ccc(-c2ccc3ncnc(Nc4ccc(OCc5cccc(F)c5)c(C(F)(F)F)c4)c3c2)o1`, the inhibition in assay [1] was -3% and -2%; in assay [2] it was 2% and -2%; in assay [3], 1% and 4%.

For the compound `COc1ccc(-c2ccncc2)cc1C(N)=O`, the inhibition in assay [1] was -5% and -4%; in assay [2] it was 3% and 4%; in assay [3] it was 1% and 3%.

Take `COc1cc2ncn(-c3cc(OCc4ccccc4Cl)c(C(N)=O)s3)c2cc1OC`: the inhibition in assay [1] is -1%; in assay [2], 2% and 1%; in assay [3], 8% and 7%.

In the case of `COc1c(C(N)=O)cc(-c2ccc(Cl)cc2)cc1-c1ccc(S(N)(=O)=O)cc1`, the inhibition in assay [1] is 0% and -2%; in assay [2], 1%; in assay [3], -1% and 0%.

On to `NC(=O)c1sc(-n2cnc3ccccc32)cc1OCc1ccccc1Br`, for which the inhibition was 0% and -1% in assay [1]; 1% and 0% in assay [2]; 2% and -1% in assay [3].

In the case of `COC(=O)c1sc(-n2cnc3cc(OC)c(OC)cc32)cc1OCc1ccccc1C(F)(F)F`, the inhibition is -1% and 0% in assay [1]; -6% and -3% in assay [2]; 13% and 11% in assay [3].

For `COc1cccc(/C=N/Nc2ncnc3c2cnn3-c2cccc(OC)c2)c1`, the inhibition was 2% and 21% in assay [1]; -1% and -4% in assay [2]; -1% and 1% in assay [3].

On to `COc1cc(Nc2nccc(-c3cnn4ncccc34)n2)cc(OC)c1`, for which the inhibition in assay [1] was -4% and -2%; in assay [2], -9%; in assay [3], 38%.

Regarding `c1ccc(-c2n[nH]cc2-c2ccnc(-c3ccc(OCCn4ccnc4)cc3)c2)nc1`, the inhibition in assay [1] is 0% and -1%; in assay [2], -2% and -1%; in assay [3] it was -2% and 0%.

For `[O-][S+]1CCN(Cc2ccc(-c3ccc4ncnc(Nc5ccc(OCc6ccccc6)c(Cl)c5)c4c3)o2)CC1`, the inhibition is 0% and -1% in assay [1]; -2% and 0% in assay [2]; -3% in assay [3].

Regarding `CN1CCN(C(=O)c2ccc(NC(=O)Nc3ccc(N(C)c4ccnc(Nc5ccc(CS(C)(=O)=O)cc5)n4)cc3)cc2)CC1`, the inhibition in assay [1] is 1% and 2%; in assay [2], -5% and -8%; in assay [3], 26% and 22%.

As for `NS(=O)(=O)c1cccc(-c2ccc3c(NC(=O)C4CC4)n[nH]c3c2)c1`, the inhibition is 1% and 2% in assay [1]; -3% and -1% in assay [2]; -1% and 0% in assay [3].

In the case of `COc1ccc2ncn(-c3cc(O[C@H](C)c4ccccc4C(F)(F)F)c(C(N)=O)s3)c2c1`, the inhibition was 0% and -1% in assay [1]; 0% and -2% in assay [2]; -3% and -4% in assay [3].

On to `CCCN1CCC(Oc2cc(Nc3nc(Nc4cccc(F)c4C(N)=O)c4cc[nH]c4n3)c(OC)cc2Cl)CC1`, for which the inhibition in assay [1] is -1% and 2%; in assay [2] it was -5% and -1%; in assay [3] it was 0% and -2%.

In the case of `CCOc1ccc2c(-c3ccnc(Nc4cc(OC)cc(C(F)(F)F)c4)n3)cnn2n1`, the inhibition in assay [1] is 4% and -1%; in assay [2] it was -1%; in assay [3] it was 32% and 31%.

With `CNC(=O)c1sc(-n2cnc3cc(OC)c(OC)cc32)cc1OCc1ccccc1C(F)(F)F`, the inhibition in assay [1] was 2% and 4%; in assay [2], -5% and -3%; in assay [3], -3% and -2%.

For `Fc1cccc(COc2ccc(Nc3ncnc4sc(-c5cccs5)cc34)cc2Cl)c1`, the inhibition in assay [1] is -2% and 0%; in assay [2], -2% and -3%; in assay [3], -2%.

On to `CCn1c(-c2nonc2N)nc2c(C#CCN)ncc(OCCCN)c21`, for which the inhibition in assay [1] was 22%; in assay [2], -3% and -6%; in assay [3] it was 8% and 6%.

As to `CCc1cccc(CC)c1/C=C/c1cncc(C(=O)NC)c1`, the inhibition in assay [1] is 2% and 1%; in assay [2], -6% and -4%; in assay [3], -2% and -3%.

Regarding `CCN1CCC(C(=O)Nc2n[nH]c3nnc(-c4cccc(F)c4F)cc23)CC1`, the inhibition in assay [1] is 4% and 3%; in assay [2], -2% and -4%; in assay [3], -1% and -3%.

Take `CCS(=O)(=O)c1ccc(OC)c(Nc2ncc(-c3cccc(-c4ccccc4F)c3)o2)c1`: the inhibition is -3% and 14% in assay [1]; 1% and 2% in assay [2]; 10% and 5% in assay [3].

`N#Cc1c(NC(=O)c2cccc3ccccc23)sc2c1CCCC2`: the inhibition in assay [1] is 2% and -1%; in assay [2], -2% and 0%; in assay [3] it was -2% and -3%.

For the compound `NC(=O)c1cccc(Nc2nccc(Nc3cccc(F)c3)n2)c1`, the inhibition in assay [1] is 4% and 2%; in assay [2], -4% and -3%; in assay [3], 13% and 12%.

As for `CS(=O)(=O)CCNCc1ccc(-c2ccc3ncnc(Nc4ccc(OCc5cccc(C(F)(F)F)c5)cc4)c3c2)o1`, the inhibition in assay [1] was -1% and 0%; in assay [2], 0% and -1%; in assay [3], 1% and -1%.

For `COc1cc2c(cc1Nc1nc(Nc3ccsc3C(N)=O)c3cc[nH]c3n1)N(C(=O)CN(C)C)CCC2(C)C`, the inhibition in assay [1] was 1% and 2%; in assay [2], -5% and -1%; in assay [3] it was 39% and 44%.

`C#Cc1cccc(Nc2ncnc3ccc(OCCCCNCCS(C)(=O)=O)cc23)c1`: the inhibition in assay [1] is 3%; in assay [2], -5% and -6%; in assay [3] it was -2% and 0%.
